For 21 compounds, IC50 results are on record in patent US11084800B2 (Achillion Pharmaceuticals, Inc., priority 2017, dated 2021).

Molecules are shown by their SMILES.

Sequence of Human Factor D (P00746 26-253): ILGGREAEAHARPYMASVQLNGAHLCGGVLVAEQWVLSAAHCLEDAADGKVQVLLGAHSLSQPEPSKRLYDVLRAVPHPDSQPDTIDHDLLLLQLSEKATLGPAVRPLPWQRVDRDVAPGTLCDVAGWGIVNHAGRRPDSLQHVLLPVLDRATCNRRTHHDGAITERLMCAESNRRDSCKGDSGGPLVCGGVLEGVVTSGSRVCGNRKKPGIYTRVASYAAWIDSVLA

This test concerns the target Human Factor D (Homo sapiens (Human), UniProt P00746). The experiment in a line: Human Factor D Assay. The format is biochemical. The settings on record: Table 6; Factor D 80 nM, substrate Z-L-Lys-SBz; read-out: IC50. An outline of the steps:
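Thioester substrate Z-L-Lys-SBz (100 μM) with Ellman's reagent DTNB (100 μM) reports activity of 80 nM human serum-derived enzyme, kinetically at 405 nm over 30 min. Compound preincubated 5 min, room temperature, pH 7.5 Tris/1 M NaCl; IC50 by nonlinear fit of rates.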
The term IC50 denotes the concentration that inhibits the measured activity by half. Regarding `CC(=O)c1nn(CC(=O)N2[C@H](C(=O)Nc3cccc(O)n3)C[C@@]3(C)C[C@@H]23)c2c(C)cc(-c3cnc(C)nc3)cc12` [Compound 105, (1R,3S,5R)-2-(2-(3-Acetyl-7-methyl-5-(2-methylpyrimidin-5-yl)-1H-indazol-1-yl)acetyl)-N-(6-hydroxypyridin-2-yl)-5-methyl-2-azabicyclo[3.1.0]hexane-3-carboxamide], the IC50 is less than 1000 nM. Turning to `COc1ncc(-c2ccc3c(c2)c(C(C)=O)nn3CC(=O)N2[C@H](C(=O)Nc3cccc(Br)n3)C[C@@]3(C)C[C@@H]23)cn1` [Compound 108, (1R,3S,5R)-2-(2-(3-Acetyl-5-(2-methoxypyrimidin-5-yl)-1H-indazol-1-yl)acetyl)-N-(6-bromopyridin-2-yl)-5-methyl-2-azabicyclo[3.1.0]hexane-3-carboxamide], the IC50 is less than 1000 nM. Consider `CC(=O)c1nn(CC(=O)N2C[C@H]3C[C@H]3[C@H]2C(=O)O)c2c(C)cc(-c3cnc(C)nc3)cc12` [Compound 111, (1R,2S,5S)-3-(2-(3-acetyl-7-methyl-5-(2-methylpyrimidin-5-yl)-1H-indazol-1-yl)acetyl)-3-azabicyclo[3.1.0]hexane-2-carboxylic acid], for which the IC50 was more than 10000 nM. As to `CC(=O)c1nn(CC(=O)N2[C@H](C(=O)Nc3nc(Br)ccc3C3CC3)C[C@@]3(CN(C)C)C[C@@H]23)c2ccc(-c3cnc(C)nc3)cc12` [Compound 112, (1R,3S,5R)-2-(2-(3-Acetyl-5-(2-methylpyrimidin-5-yl)-1H-indazol-1-yl)acetyl)-N-(6-bromo-3-cyclopropylpyridin-2-yl)-5-((dimethylamino)methyl)-2-azabicyclo[3.1.0]hexane-3-carboxamide], the IC50 is less than 1000 nM.

Take `CC(=O)c1nn(CC(=O)N2[C@H](C(=O)Nc3nc(Br)ccc3C)C[C@@]3(CNCCF)C[C@@H]23)c2c(C)cc(-c3cnc(C)nc3)cc12` [Compound 113, (1R,3S,5R)-2-(2-(3-Acetyl-7-methyl-5-(2-methylpyrimidin-5-yl)-1H-indazol-1-yl)acetyl)-N-(6-bromo-3-methylpyridin-2-yl)-5-((2-fluoroethylamino)methyl)-2-azabicyclo[3.1.0]hexane-3-carboxamide]: the IC50 was less than 1000 nM. The same measure for `COCc1cc(-c2cnc(C)nc2)cc2c(C(C)=O)nn(CC(=O)N3[C@H](C(=O)Nc4nc(Br)ccc4C)C[C@@]4(COC)C[C@@H]34)c12` [Compound 114, (1R,3S,5S)-2-(2-(3-Acetyl-7-(methoxymethyl)-5-(2-methylpyrimidin-5-yl)-1H-indazol-1-yl)acetyl)-N-(6-bromo-3-methylpyridin-2-yl)-5-(methoxymethyl)-2-azabicyclo[3.1.0]hexane-3-carboxamide]: less than 1000 nM. The same measure for `Cc1ncc(-c2cc(C)c3c(c2)c(C(C)O)nn3CC(=O)N2C[C@H]3C[C@H]3[C@H]2C(=O)Nc2nc(Br)ccc2C)cn1` (stereo partly drawn) [Compound 115, (1R,2S,5S)-N-(6-bromo-3-methylpyridin-2-yl)-3-(2-(3-(1-hydroxyethyl)-7-methyl-5-(2-methylpyrimidin-5-yl)-1H-indazol-1-yl)acetyl)-3-azabicyclo[3.1.0]hexane-2-carboxamide]: 1000 to 10000 nM; for `CC(=O)c1nn(CC(=O)N2[C@H](C(=O)Nc3cc(F)cc(Br)n3)C[C@@]3(C)C[C@@H]23)c2c(C)cc(-c3cnc(C)nc3)cc12` [Compound 116, (1R,3S,5R)-2-(2-(3-Acetyl-7-methyl-5-(2-methylpyrimidin-5-yl)-1H-indazol-1-yl)acetyl)-N-(6-bromo-4-fluoropyridin-2-yl)-5-methyl-2-azabicyclo[3.1.0]hexane-3-carboxamide]: less than 1000 nM. For `CC(=O)c1nn(CC(=O)N2C[C@H](F)C[C@H]2C(=O)Nc2nc(Br)ccc2CC(=O)N(C)C)c2ccc(-c3cnc(C)nc3)cc12` [Compound 117, (2S,4R)-1-(2-(3-Acetyl-5-(2-methylpyrimidin-5-yl)-1H-indazol-1-yl)acetyl)-N-(6-bromo-3-(2-(dimethylamino)-2-oxoethyl)pyridin-2-yl)-4-fluoropyrrolidine-2-carboxamide] the value was less than 1000 nM; for `CCN(CC)C[C@@]12C[C@@H](C(=O)Nc3nc(Br)ccc3C)N(C(=O)Cn3nc(C(C)=O)c4cc(-c5cnc(C)nc5)cc(C)c43)[C@@H]1C2` [Compound 118, (1R,3S,5R)-2-(2-(3-Acetyl-7-methyl-5-(2-methylpyrimidin-5-yl)-1H-indazol-1-yl)acetyl)-N-(6-bromo-3-methylpyridin-2-yl)-5-((diethylamino)methyl)-2-azabicyclo[3.1.0]hexane-3-carboxamide], less than 1000 nM.

Regarding `CC(=O)c1nn(CC(=O)N2[C@H](C(=O)Nc3nc(Br)ccc3C)C[C@@]3(CN4C[C@H]5CCC[C@H]5C4)C[C@@H]23)c2ccc(-c3cnc(C)nc3)cc12` [Compound 119, (1R,3S,5R)-2-(2-(3-Acetyl-5-(2-methylpyrimidin-5-yl)-1H-indazol-1-yl)acetyl)-N-(6-bromo-3-methylpyridin-2-yl)-5-(((3aR,6aS)-hexahydrocyclopenta[c]pyrrol-2(1H)-yl)methyl)-2-azabicyclo[3.1.0]hexane-3-carboxamide], the IC50 is less than 1000 nM.

For `CNc1ncc(-c2ccc3c(c2)c(C(C)=O)nn3CC(=O)N2[C@H](C(=O)Nc3nc(Br)ccc3C)C[C@@]3(C)C[C@@H]23)cn1` [Compound 120, (1R,3S,5R)-2-(2-(3-Acetyl-5-(2-(methylamino)pyrimidin-5-yl)-1H-indazol-1-yl)acetyl)-N-(6-bromo-3-methylpyridin-2-yl)-5-methyl-2-azabicyclo[3.1.0]hexane-3-carboxamide], the IC50 is less than 1000 nM.

Take `C=CCCCCN(C)C[C@@]12C[C@@H](C(=O)Nc3nc(Br)ccc3C=C)N(C(=O)Cn3nc(C(C)=O)c4cc(-c5cnc(C)nc5)ccc43)[C@@H]1C2` [Compound 123, (1R,3S,5R)-2-(2-(3-Acetyl-5-(2-methylpyrimidin-5-yl)-1H-indazol-1-yl)acetyl)-N-(6-bromo-3-vinylpyridin-2-yl)-5-((hex-5-en-1-yl(methyl)amino)methyl)-2-azabicyclo[3.1.0]hexane-3-carboxamide]: the IC50 is less than 1000 nM. The same measure for `CC(=O)c1nn(CC(=O)N2[C@H](C(=O)Nc3nc(Br)ccc3C)C[C@@]3(C)C[C@@H]23)c2c(C#N)cc(-c3cnc(C)nc3)cc12` [Compound 124, (1R,3S,5R)-2-(2-(3-Acetyl-7-cyano-5-(2-methylpyrimidin-5-yl)-1H-indazol-1-yl)acetyl)-N-(6-bromo-3-methylpyridin-2-yl)-5-methyl-2-azabicyclo[3.1.0]hexane-3-carboxamide]: less than 1000 nM; for `CC(=O)c1nn(CC(=O)N2[C@H](C(=O)Nc3nc(Br)ccc3C)C[C@@]3(C)C[C@@H]23)c2ccc(-c3cnc(N(C)C)nc3)cc12` [Compound 125, (1R,3S,5R)-2-(2-(3-Acetyl-5-(2-(dimethylamino)pyrimidin-5-yl)-1H-indazol-1-yl)acetyl)-N-(6-bromo-3-methylpyridin-2-yl)-5-methyl-2-azabicyclo[3.1.0]hexane-3-carboxamide]: less than 1000 nM; for `CC(=O)c1nn(CC(=O)N2[C@H](C(=O)O)C[C@@]3(C)C[C@@H]23)c2c(C)cc(-c3cnc(C)nc3)cc12` [Compound 126, (1R,3S,5R)-2-(2-(3-acetyl-7-methyl-5-(2-methylpyrimidin-5-yl)-1H-indazol-1-yl)acetyl)-5-methyl-2-azabicyclo[3.1.0]hexane-3-carboxylic acid]: more than 10000 nM. Regarding `CC(=O)c1nn(CC(=O)N2[C@H](C(=O)Nc3nc(Br)ccc3C)C[C@@]3(CN4CC5(COC5)C4)C[C@@H]23)c2c(C)cc(-c3cnc(C)nc3)cc12` [Compound 127, (1R,3S,5R)-5-(2-Oxa-6-azaspiro[3.3]heptan-6-ylmethyl)-2-(2-(3-acetyl-7-methyl-5-(2-methylpyrimidin-5-yl)-1H-indazol-1-yl)acetyl)-N-(6-bromo-3-methylpyridin-2-yl)-2-azabicyclo[3.1.0]hexane-3-carboxamide], the IC50 was less than 1000 nM.

Consider `CC(=O)c1nn(CC(=O)N2[C@H](C(=O)Nc3nc(Br)ccc3C)C[C@@]3(CN4C[C@H]5CCC[C@H]5C4)C[C@@H]23)c2c(C)cc(-c3cnc(C)nc3)cc12` [Compound 128, (1R,3S,5R)-2-(2-(3-Acetyl-7-methyl-5-(2-methylpyrimidin-5-yl)-1H-indazol-1-yl)acetyl)-N-(6-bromo-3-methylpyridin-2-yl)-5-(((3aR,6aS)-hexahydrocyclopenta[c]pyrrol-2(1H)-yl)methyl)-2-azabicyclo[3.1.0]hexane-3-carboxamide], for which the IC50 was less than 1000 nM. For `CC(=O)c1nn(CC(=O)N2[C@H](C(=O)Nc3nc(Br)ccc3C)C[C@@]3(CN4CC5(CCCC5)C4)C[C@@H]23)c2c(C)cc(-c3cnc(C)nc3)cc12` [Compound 129, (1R,3S,5R)-5-(2-Azaspiro[3.4]octan-2-ylmethyl)-2-(2-(3-acetyl-7-methyl-5-(2-methylpyrimidin-5-yl)-1H-indazol-1-yl)acetyl)-N-(6-bromo-3-methylpyridin-2-yl)-2-azabicyclo[3.1.0]hexane-3-carboxamide] the value was less than 1000 nM. The same measure for `CC(=O)c1nn(CC(=O)N2[C@H](C(=O)Nc3nc(Br)ccc3C)C[C@@]3(C)C[C@@H]23)c2ccc(-c3cnc(C)nc3)c(F)c12` [Compound 130, (1R,3S,5R)-2-(2-(3-Acetyl-4-fluoro-5-(2-methylpyrimidin-5-yl)-1H-indazol-1-yl)acetyl)-N-(6-bromo-3-methylpyridin-2-yl)-5-methyl-2-azabicyclo[3.1.0]hexane-3-carboxamide]: less than 1000 nM; for `CC(=O)c1nn(CC(=O)N2[C@H](C(=O)Nc3nc(Br)ccc3C)C[C@@]3(C)C[C@@H]23)c2c(C3CC3)cc(-c3cnc(C)nc3)cc12` [Compound 131, (1R,3S,5R)-2-(2-(3-Acetyl-7-cyclopropyl-5-(2-methylpyrimidin-5-yl)-1H-indazol-1-yl)acetyl)-N-(6-bromo-3-methylpyridin-2-yl)-5-methyl-2-azabicyclo[3.1.0]hexane-3-carboxamide]: less than 1000 nM.
